According to article PMC12281424, “A Rac-specific competitive inhibitor of guanine nucleotide binding reduces metastasis in triple-negative breast cancer” (Cell Reports Medicine, 2025):

Columns and labels:
[1] = target: Protein Tyrosine Kinase, Insulin Receptor (Homo sapiens, UniProt P06213); experiment: Safety screen; assay type: biochemical
Description: (§1) The kinase profiler was performed by the company Eurofins (Discovery, Panlab and Cerep).

[2] = target: Adrenergic α1D (Homo sapiens, UniProt P25100); experiment: Safety screen; assay type: binding
Description: (§2) Blood cell counts, kinase profiler, safety screen, bacterial cytotoxicity, Ames, micronucleus assays were performed by the company Eurofins (France).

[3] = target: Adrenergic α2B (Homo sapiens, UniProt P18089); experiment: Safety screen; assay type: binding
Chain of Adrenergic α2B (P18089 whole entry): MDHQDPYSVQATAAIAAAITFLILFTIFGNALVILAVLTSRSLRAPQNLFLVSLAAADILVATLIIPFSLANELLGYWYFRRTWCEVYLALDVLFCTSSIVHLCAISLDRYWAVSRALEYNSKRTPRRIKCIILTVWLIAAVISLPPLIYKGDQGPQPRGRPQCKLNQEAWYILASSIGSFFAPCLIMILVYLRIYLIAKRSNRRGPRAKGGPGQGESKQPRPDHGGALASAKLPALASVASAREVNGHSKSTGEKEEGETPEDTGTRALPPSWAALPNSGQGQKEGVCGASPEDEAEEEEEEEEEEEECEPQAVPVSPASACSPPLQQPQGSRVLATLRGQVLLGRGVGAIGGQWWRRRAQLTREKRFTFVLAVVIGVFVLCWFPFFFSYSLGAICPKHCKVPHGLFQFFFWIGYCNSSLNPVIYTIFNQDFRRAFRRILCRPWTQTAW
Description: as §2

[4] = target: Bradykinin B2 (Homo sapiens, UniProt P30411); experiment: Safety screen; assay type: binding
Description: (§3) Blood cell counts, kinase profiler, safety screen, bacterial cytotoxicity, Ames, micronucleus assays were performed by the company Eurofins (France). The kinase profiler was performed by the company Eurofins (Discovery, Panlab and Cerep).

[5] = tested on: GABAA, Chloride Channel, TBOB; experiment: Safety screen; assay type: binding, rat
Description: as §2

[6] = tested on: Glutamate, NMDA, Polyamine; experiment: Safety screen; assay type: binding, rat
Description: as §3

[7] = target: Nicotinic Acetylcholine α1, Bungarotoxin (Homo sapiens, UniProt P02708+P07510+Q07001); experiment: Safety screen; assay type: binding
[8] = target: Opiate δ1 (OP1, DOP) (Homo sapiens, UniProt P41143); experiment: Safety screen; assay type: binding
Chain of Opiate δ1 (OP1, DOP) (P41143 whole entry): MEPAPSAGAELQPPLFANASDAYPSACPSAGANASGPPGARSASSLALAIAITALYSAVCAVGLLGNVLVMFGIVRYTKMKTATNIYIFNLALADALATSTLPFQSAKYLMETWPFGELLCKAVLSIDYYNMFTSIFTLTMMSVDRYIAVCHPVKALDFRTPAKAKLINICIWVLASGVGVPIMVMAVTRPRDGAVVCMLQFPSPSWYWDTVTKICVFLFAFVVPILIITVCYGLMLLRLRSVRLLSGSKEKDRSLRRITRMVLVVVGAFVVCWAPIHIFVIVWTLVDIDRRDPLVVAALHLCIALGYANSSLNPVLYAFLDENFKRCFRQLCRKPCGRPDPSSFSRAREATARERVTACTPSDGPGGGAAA
Description: as §2

[9] = target: CaMKIγ(h) (Homo sapiens, UniProt Q96NX5); experiment: Kinase Profiler; assay type: biochemical
Description: as §1

[10] = target: CDK2/cyclinA(h) (Homo sapiens, UniProt P24941); experiment: Kinase Profiler; assay type: biochemical
Description: as §3

[11] = target: cKit(D816H)(h) (Homo sapiens, UniProt P10721, D816H); experiment: Kinase Profiler; assay type: biochemical
Description: as §3

[12] = target: HIPK3(h) (Homo sapiens, UniProt Q9H422); experiment: Kinase Profiler; assay type: biochemical
Description: as §1

[13] = target: MARK4(h) (Homo sapiens, UniProt Q96L34); experiment: Kinase Profiler; assay type: biochemical
Chain of MARK4(h) (Q96L34 whole entry): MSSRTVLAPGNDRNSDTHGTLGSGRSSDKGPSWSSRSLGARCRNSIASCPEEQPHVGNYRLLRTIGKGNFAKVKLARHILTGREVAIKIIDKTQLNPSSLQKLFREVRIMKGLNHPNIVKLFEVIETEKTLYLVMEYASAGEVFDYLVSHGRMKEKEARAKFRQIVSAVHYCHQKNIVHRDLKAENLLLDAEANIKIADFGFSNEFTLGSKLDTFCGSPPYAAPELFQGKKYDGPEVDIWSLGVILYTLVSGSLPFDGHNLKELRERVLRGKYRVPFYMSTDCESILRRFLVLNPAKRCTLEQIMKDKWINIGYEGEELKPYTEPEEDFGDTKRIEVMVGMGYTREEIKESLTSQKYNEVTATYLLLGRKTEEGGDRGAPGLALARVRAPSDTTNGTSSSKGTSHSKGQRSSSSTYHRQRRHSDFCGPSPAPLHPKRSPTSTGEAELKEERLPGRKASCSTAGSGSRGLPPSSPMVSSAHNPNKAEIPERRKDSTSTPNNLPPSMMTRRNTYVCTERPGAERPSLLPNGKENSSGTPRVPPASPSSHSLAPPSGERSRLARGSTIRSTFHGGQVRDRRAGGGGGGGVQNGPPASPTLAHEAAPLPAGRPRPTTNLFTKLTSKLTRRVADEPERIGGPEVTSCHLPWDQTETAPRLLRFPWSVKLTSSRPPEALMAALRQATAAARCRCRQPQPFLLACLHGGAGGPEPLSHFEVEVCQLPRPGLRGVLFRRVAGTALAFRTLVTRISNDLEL
Description: as §1

[14] = target: NUAK2(h) (Homo sapiens, UniProt Q9H093); experiment: Kinase Profiler; assay type: biochemical
Description: as §1

[15] = target: Plk3(h) (Homo sapiens, UniProt Q9H4B4); experiment: Kinase Profiler; assay type: biochemical
Description: as §3

[16] = target: Plk4(h) (Homo sapiens, UniProt O00444); experiment: Kinase Profiler; assay type: biochemical
Chain of Plk4(h) (O00444 whole entry): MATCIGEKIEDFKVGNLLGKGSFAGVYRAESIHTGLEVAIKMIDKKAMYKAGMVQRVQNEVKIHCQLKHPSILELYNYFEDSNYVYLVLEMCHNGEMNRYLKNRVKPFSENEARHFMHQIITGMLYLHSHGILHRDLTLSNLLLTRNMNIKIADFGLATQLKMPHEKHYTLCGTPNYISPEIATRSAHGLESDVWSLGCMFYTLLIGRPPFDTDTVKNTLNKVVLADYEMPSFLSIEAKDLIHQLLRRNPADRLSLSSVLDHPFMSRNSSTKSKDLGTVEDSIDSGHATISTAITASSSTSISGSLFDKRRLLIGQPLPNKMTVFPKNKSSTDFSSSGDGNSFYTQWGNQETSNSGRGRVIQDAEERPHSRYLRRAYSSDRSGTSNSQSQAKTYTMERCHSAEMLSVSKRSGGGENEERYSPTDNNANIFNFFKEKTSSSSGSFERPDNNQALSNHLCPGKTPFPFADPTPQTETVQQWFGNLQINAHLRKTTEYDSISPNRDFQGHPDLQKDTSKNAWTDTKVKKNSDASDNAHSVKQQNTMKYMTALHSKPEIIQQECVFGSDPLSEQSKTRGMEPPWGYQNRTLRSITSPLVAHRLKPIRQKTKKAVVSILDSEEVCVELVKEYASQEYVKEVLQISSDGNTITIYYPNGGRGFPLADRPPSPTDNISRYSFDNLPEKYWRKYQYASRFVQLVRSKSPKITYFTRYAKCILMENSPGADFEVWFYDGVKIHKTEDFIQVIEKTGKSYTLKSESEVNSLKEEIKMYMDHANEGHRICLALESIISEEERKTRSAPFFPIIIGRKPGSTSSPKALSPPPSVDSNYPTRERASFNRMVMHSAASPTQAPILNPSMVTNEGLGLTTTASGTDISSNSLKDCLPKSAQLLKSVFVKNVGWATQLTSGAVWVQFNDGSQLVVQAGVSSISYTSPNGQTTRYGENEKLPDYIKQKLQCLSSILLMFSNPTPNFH
Description: as §3

[17] = target: Syk(h) (Homo sapiens, UniProt P43405); experiment: Kinase Profiler; assay type: biochemical
Description: as §1

[18] = target: VRK2(h) (Homo sapiens, UniProt Q86Y07); experiment: Kinase Profiler; assay type: biochemical
Chain of VRK2(h) (Q86Y07 whole entry): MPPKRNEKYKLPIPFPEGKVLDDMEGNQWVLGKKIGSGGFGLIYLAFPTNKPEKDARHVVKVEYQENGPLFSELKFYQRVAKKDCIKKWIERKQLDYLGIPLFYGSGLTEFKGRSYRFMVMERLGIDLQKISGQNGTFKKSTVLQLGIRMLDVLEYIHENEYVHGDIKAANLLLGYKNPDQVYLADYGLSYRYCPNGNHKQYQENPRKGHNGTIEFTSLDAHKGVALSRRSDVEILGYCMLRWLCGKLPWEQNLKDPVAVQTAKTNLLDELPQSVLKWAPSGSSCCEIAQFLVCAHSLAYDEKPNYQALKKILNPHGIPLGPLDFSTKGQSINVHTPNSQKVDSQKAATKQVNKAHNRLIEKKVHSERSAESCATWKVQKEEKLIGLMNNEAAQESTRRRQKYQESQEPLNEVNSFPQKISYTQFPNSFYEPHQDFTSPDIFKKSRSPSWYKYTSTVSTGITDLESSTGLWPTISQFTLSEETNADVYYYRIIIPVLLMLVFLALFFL
Description: as §1

[19] = target: Wee1(h) (Homo sapiens, UniProt P30291); experiment: Kinase Profiler; assay type: biochemical
Chain of Wee1(h) (P30291 whole entry): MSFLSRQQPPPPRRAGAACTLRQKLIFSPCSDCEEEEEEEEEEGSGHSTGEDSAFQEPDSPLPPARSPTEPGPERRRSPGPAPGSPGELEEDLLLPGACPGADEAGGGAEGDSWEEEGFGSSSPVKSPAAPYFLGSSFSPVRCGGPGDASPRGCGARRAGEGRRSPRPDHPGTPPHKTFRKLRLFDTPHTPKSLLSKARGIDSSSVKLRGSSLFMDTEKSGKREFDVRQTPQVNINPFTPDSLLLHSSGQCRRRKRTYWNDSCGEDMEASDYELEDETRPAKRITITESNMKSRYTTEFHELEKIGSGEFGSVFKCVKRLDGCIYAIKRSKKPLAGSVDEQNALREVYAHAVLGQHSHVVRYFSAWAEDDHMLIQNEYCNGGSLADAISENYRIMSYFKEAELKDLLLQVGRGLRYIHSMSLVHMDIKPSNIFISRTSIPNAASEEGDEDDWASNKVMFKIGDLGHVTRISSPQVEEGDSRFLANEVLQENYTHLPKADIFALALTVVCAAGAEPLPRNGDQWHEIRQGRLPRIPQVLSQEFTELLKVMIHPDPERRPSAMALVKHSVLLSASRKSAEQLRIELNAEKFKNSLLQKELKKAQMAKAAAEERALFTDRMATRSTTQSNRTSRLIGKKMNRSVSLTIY
Description: as §1

[20] = target: WNK2(h) (Homo sapiens, UniProt Q9Y3S1); experiment: Kinase Profiler; assay type: biochemical
Description: as §1

[21] = target: WNK3(h) (Homo sapiens, UniProt Q9BYP7); experiment: Kinase Profiler; assay type: biochemical
Description: as §1

[22] = target: CDK13/cyclinK(h) (Homo sapiens, UniProt Q14004)
Description: as §3

Chain of Protein Tyrosine Kinase, Insulin Receptor (P06213 28-1382): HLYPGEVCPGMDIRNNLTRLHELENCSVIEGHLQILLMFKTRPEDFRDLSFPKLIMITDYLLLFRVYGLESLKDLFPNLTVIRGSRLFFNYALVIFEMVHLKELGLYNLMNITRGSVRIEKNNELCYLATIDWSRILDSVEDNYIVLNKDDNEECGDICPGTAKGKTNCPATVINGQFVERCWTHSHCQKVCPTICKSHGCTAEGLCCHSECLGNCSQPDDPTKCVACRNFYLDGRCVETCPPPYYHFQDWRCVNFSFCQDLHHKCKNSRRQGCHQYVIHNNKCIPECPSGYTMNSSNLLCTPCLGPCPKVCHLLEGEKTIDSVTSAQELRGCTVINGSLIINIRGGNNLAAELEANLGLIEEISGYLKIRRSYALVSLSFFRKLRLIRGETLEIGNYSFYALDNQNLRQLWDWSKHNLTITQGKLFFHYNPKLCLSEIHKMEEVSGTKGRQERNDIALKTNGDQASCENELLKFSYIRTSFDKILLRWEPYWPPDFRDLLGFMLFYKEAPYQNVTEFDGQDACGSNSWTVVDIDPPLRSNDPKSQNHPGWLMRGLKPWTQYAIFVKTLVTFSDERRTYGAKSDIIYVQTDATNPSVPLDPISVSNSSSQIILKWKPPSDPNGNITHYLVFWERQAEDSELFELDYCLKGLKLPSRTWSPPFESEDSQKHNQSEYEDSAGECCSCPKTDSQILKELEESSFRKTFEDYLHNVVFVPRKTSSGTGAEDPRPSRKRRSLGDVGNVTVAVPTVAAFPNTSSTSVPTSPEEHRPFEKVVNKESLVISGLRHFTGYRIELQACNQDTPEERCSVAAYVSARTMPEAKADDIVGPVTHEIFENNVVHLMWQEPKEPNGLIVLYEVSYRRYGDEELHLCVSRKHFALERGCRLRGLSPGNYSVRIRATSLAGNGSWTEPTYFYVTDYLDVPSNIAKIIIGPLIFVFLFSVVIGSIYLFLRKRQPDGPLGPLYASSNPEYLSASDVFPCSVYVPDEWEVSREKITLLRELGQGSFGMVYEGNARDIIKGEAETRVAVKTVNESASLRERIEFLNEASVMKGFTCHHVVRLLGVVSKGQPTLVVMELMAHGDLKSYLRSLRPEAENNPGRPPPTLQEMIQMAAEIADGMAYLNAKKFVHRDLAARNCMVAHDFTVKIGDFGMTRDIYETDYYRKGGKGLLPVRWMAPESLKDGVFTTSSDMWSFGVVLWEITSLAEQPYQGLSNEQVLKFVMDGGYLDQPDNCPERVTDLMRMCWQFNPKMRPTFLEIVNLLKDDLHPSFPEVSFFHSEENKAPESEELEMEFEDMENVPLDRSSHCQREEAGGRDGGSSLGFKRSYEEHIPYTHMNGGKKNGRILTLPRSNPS

Structure (SMILES): COc1ccc(OC)c(NS(=O)(=O)c2ccc(NC(=O)CCSc3ccc(C)cc3)cc2)c1 [Compound A41]
- % inh. [1]: -25%
- % inh. [2]: 21%
- % inh. [3]: 9%
- % inh. [4]: 1%
- % inh. [5]: 45%
- % inh. [6]: 19%
- % inh. [7]: 0%
- % inh. [8]: 6%
- Activity(%) [9]: 121%
- Activity(%) [10]: 97%
- Activity(%) [11]: 109%
- Activity(%) [12]: 95%
- Activity(%) [13]: 105%
- Activity(%) [14]: 110%
- Activity(%) [15]: 115%
- Activity(%) [16]: 104%
- Activity(%) [17]: 91%
- Activity(%) [18]: 110%
- Activity(%) [19]: 112%
- Activity(%) [20]: 90%
- Activity(%) [21]: 101%
- Activity(%) [22]: 97%
